Test results reported in patent US10233165B2, “Cyclopropylamine compounds as histone demethylase inhibitors” (IEO—Instituto Europeo di Oncologia S.r.l., priority 2014, dated 2019).
Counter-ions that a name gives are not always drawn. Like-named read-outs stand apart in the source and are kept apart here. One block for each compound: values may come before it.

Columns and labels:
[1] = system: CD14 mRNA in THP-1 cells; experiment: THP-1 target modulation, CD14 mRNA by quantitative RT-PCR; type: cell-based, human; settings: 0.1 μM inhibitor, 5 days, normalized against TBP mRNA
Experimental: (§1) For this scope THP-1 cells (ACC 16: DSMZ Leibniz Institute DSMZ German collection of Microorganism and cell culture) were plated at cellular density of 50.000 cells/mL and were incubated with the inhibitor at a fixed concentration of 0.1 μM for 5 days. Then, the cells were recovered and mRNA extracted to follow mRNA levels of the macrophage-specific genes CD14. mRNA expression was measured by quantitative RT-PCR (Fast SYBR Green Master mix, Applied Biosystems Foster City, Calif.) using specific primers and normalized against TBP mRNA. […] Primers used in this study were: […]

[2] = molecular target: T1, Human recombinant MAO A (Homo sapiens, UniProt P21397); experiment: Bioluminescent-coupled assay for monoamine oxidases (MAO-Glo), MAO-A; type: biochemical; settings: for IC50 (MAO-A)/ IC50 (LSD1): ratio, 15 min preincubation of compound with enzyme
T1 construct: made in house; host or cells: Pichia pastoris
T1 sequence (P21397 1-527): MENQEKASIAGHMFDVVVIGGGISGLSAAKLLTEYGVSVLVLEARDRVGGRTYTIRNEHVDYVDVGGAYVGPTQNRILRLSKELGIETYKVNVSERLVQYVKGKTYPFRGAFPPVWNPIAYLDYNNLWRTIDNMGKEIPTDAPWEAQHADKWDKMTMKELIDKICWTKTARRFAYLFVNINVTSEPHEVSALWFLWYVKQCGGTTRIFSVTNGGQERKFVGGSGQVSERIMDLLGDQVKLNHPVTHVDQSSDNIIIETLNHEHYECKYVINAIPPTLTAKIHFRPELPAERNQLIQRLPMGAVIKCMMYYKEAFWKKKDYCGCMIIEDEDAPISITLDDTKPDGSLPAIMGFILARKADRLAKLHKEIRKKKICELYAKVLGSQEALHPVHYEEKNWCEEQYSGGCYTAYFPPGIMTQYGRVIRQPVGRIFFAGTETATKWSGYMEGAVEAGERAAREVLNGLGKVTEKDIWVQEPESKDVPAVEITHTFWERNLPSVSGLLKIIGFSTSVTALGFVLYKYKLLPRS
Experimental: The MAO-Glo Assay from Promega (cat. V1402, Promega, Madison, Wis.) was used to measure the effect of inhibitors on MAO-A and MAO-B activity.
Human recombinant MAO A and MAO B were expressed in Pichia pastoris and purified as published (Binda C. et al. Proc. Natl. Acad. Sci. USA, 2003, 9750-9755). The assay was performed at RT in 50 μL (25 μL reaction solution+25 μL detection reagent) in 96 well half area white plates (cat. 3693, Corning, Corning, N.Y.). Luminescence was measured after 20 min incubation in the dark using a microplate reader (Infinite F200, Tecan Group, Switzerland) with an integration time of 0.25 s per well.
50 nM MAO-A or 125 nM MAO-B were incubated with five different inhibitor concentrations (from 0.004 μM to 100 μM) for 15 min at RT in Promega MAO Buffer or Promega MAO-B Buffer (MAO-Glo Assay kit, catalogue number V1402, Promega, Madison, Wis.). […] After 30 min of incubation the reaction was stopped with the Promega detection reagent. The experiments were carried out in duplicate. IC50 was calculated using GraphPad Prism version 4.0 (GraphPad Software, San Diego, Calif.).

[3] = system: Human leukemia MV4-11 cells; experiment: Cell growth, CellTiter-Fluor viability assay; type: cell-based; settings: 48 h incubation, read-out: IC50 [μM] cell growth inhibitory assay
Text: CellTiter-Flor® (Promega) is a nonlytic, single-reagent-addition fluorescence assay that measures the relative number of living cells in a culture population after experimental manipulation. The CellTiter-Fluor™ Cell Viability Assay measures the conserved and constitutive protease activity within live cells and therefore acts as a marker for cell viability.
Human leukemia MV4-11 cells, (obtained from the Deutsche Sammlung von Mikroorganismen and Zellkulturen, ACC 102) in exponential growth, were incubated for 48 h with different concentrations of the inhibitors (e.g. from 0 to 100 μM). After 48 h a volume of CellTiterFluor® Reagent equal to the volume of cell culture medium was added. The content was mixed and incubates for at least 90 min at 37° C. degree to obtain a stable signal. The fluorescence was recorded using an excitation wavelength of 360 nm and an emission at 535 nm. The IC50 was calculated using GraphPad Software.

[4] = system: human THP-1 cells; experiment: THP-1 methylcellulose assay, colony formation; type: cell-based; settings: 500 nM inhibitor, 13 days, versus vehicle; for inhibition at 0.5 µM: Homo sapiens, THP-1, 312 h
Experimental: The KDM1A inhibitors were tested for their anti-clonogenic potential on human THP-1 cells (ACC 16: DSMZ Leibniz Institute DSMZ German collection of Microorganism and cell culture).
(§2) THP-1 cells were plated at a density of 250 cells per plate and cultured with the inhibitors at a fixed dose of 500 nM in MethoCult™ H4435 Enriched medium (StemCell Technologies, Vancouver, BC) for 13 days according to the manufacturer instructions. Then, the colony forming potential was scored by direct visualization using an inverted microscope and the percentage of inhibition over the vehicle was assessed. In addition, the cells were harvested and compounds-induced maturation was monitored by changes in the mRNA levels of macrophage-specific genes (CD14) as reported above.

[5] = system: CD14 mRNA in THP-1 cells; experiment: THP-1 methylcellulose assay, CD14 mRNA in harvested cells; type: cell-based, human; settings: THP-1 cells harvested from methylcellulose, 500 nM inhibitor, 13 days
Experimental: as §1, §2

[6] = molecular target: T2, human recombinant KDM1A (LSD1)/CoRest complex (Homo sapiens, UniProt O60341); experiment: Assay of enzyme inhibition of KDM1A (LSD1), Amplex UltraRed/peroxidase; type: biochemical; settings: result in words
T2 construct: made in house; host or cells: E. coli
Experimental: The complex of human recombinant KDM1A (LSD1)/CoRest protein was produced in E. coli as separate proteins and co-purified following previously reported procedures (Forneris F. et al. Trends Biochem. Sci. 2008, 33, 181-189; Forneris F. et al. J. Biol. Chem. 2007, 282, 20070-20074). The experiments were performed using a mono-methylated H3-K4 peptide containing 21 amino acids (custom synthesis done by Thermo Scientific) as substrate and in 50 mM TRIS, pH 8.0 and 0.05 mg/ml BSA. The peptide purity was >90% as checked by analytical high-pressure liquid chromatography and mass spectrometry.
The demethylase activity was estimated under aerobic conditions and at RT by measuring the release of H2O2 produced during the catalytic process by the Amplex® UltraRed detection system coupled with peroxidase assay. […] The conversion of the Amplex® Ultra Red reagent to resorufin was monitored in continuous by fluorescence (excitation at 540 nm, emission at 590 nm) using a microplate reader (Infinite 200, Tecan). […] The maximum demethylase activity of KDM1A/CoRest was obtained in the absence of inhibitors and corrected for background fluorescence in the absence of KDM1A/CoRest. The IC50 was calculated using GraphPad Software.

SMILES: N[C@@H]1C[C@H]1c1ccc(NC(=O)c2cccc(N3CCOC3=O)c2)cc1 (relative stereo) [Example 3, N-[4-[trans-2-aminocyclopropyl]phenyl]-3-(2-oxooxazolidin-3-yl)benzamide hydrochloride]
Target modulation CD14 mRNA expression (fold increase versus vehicle) ([1]; hydrochloride): 21.2 fold increase versus vehicle
IC50 (MAO-A)/ IC50 (LSD1) ([2]; hydrochloride): 3.30
IC50 ([3]; Homo sapiens): ≤ 5 µM
inhibition at 0.5 µM [4]: 41%
Colony formation Target Modulation CD14 mRNA expression (Fold increase) ([5]; hydrochloride): 24.8 Fold increase

IC50 ([3]; Homo sapiens): 5 to 50 µM
SMILES: N[C@@H]1C[C@H]1c1ccc(NC(=O)c2ccc(N3CCOCC3)cc2)cc1 (relative stereo) [Example 4, N-[4-[trans-2-aminocyclopropyl]phenyl]-4-morpholino-benzamide Hydrochloride]

IC50 ([3]; Homo sapiens): 5 to 50 µM
SMILES: N[C@@H]1C[C@H]1c1ccc(NC(=O)c2ccc(N3CCOC3=O)cc2)cc1 (relative stereo) [Example 5, N-[4-[trans-2-aminocyclopropyl]phenyl]-4-(2-oxooxazolidin-3-yl)benzamide Hydrochloride]

IC50 (MAO-A)/ IC50 (LSD1) [2]: 1.56
IC50 ([3]; Homo sapiens): 50 to 100 µM
SMILES: N[C@@H]1C[C@H]1c1ccc(NC(=O)c2ccccc2)cc1 (relative stereo) [Example 5b, N-[4-[trans-2-aminocyclopropyl]phenyl]benzamide, reference compound]

SMILES: N[C@@H]1C[C@H]1c1ccc(NC(=O)c2ccc(-c3ccccc3)cc2)cc1 (relative stereo) [Example 5e, N-[4-[trans-2-aminocyclopropyl]phenyl]-4-phenyl-benzamide, reference compound]
Target modulation CD14 mRNA expression (fold increase versus vehicle) [1]: 2.2 fold increase versus vehicle
IC50 ([2]; 50 nM MAO-A, 15 min preincubation, read-out: MAO-A inhibition IC50): 0.054 µM
IC50 ([3]; Homo sapiens): ≤ 5 µM
activity on KDM1A (LSD1) [6]: inactive

SMILES: CN1CCN(c2cc(C(=O)Nc3ccc([C@@H]4C[C@H]4N)cc3)ccc2NC(=O)OCc2ccccc2)CC1 (relative stereo) [Example 6, Benzyl N-[4-[[4-[trans-2-aminocyclopropyl]phenyl]carbamoyl]-2-(4-methylpiperazin-1-yl)phenyl]carbamate Dihydrochloride]
Target modulation CD14 mRNA expression (fold increase versus vehicle) [1]: 13 fold increase versus vehicle
IC50 (MAO-A)/ IC50 (LSD1) [2]: 15.3
IC50 ([3]; Homo sapiens): ≤ 5 µM

IC50 (MAO-A)/ IC50 (LSD1) [2]: 11.2
IC50 ([3]; Homo sapiens): ≤ 5 µM
SMILES: CN1CCN(c2ccc(C(=O)Nc3ccc([C@@H]4C[C@H]4N)cc3)cc2NC(=O)OCc2ccccc2)CC1 (relative stereo) [Example 7, Benzyl N-[5-[[4-[(trans-2-aminocyclopropyl]phenyl]carbamoyl]-2-(4-methylpiperazin-1-yl)phenyl]carbamate Dihydrochloride]

IC50 ([3]; Homo sapiens): ≤ 5 µM
SMILES: N[C@@H]1C[C@H]1c1ccc(NC(=O)c2ccc(N3CCCCC3)c(NC(=O)OCc3ccccc3)c2)cc1 (relative stereo) [Example 8, Benzyl N-[5-[[4-[trans-2-aminocyclopropyl]phenyl]carbamoyl]-2-(1-piperidyl)phenyl]carbamate Hydrochloride]

SMILES: N[C@@H]1C[C@H]1c1ccc(NC(=O)c2ccc(N3CCOCC3)c(NC(=O)OCc3ccccc3)c2)cc1 (relative stereo) [Example 9, Benzyl N-[5-[[4-[trans-2-aminocyclopropyl]phenyl]carbamoyl]-2-morpholino-phenyl]carbamate hydrochloride]
IC50 (MAO-A)/ IC50 (LSD1) [2]: 3.17
IC50 ([3]; Homo sapiens): ≤ 5 µM

SMILES: N[C@@H]1C[C@H]1c1ccc(NC(=O)c2cccc(N3CCOC3=O)c2)cc1 [Example 11, N-[4-[(1S,2R)-2-aminocyclopropyl]phenyl]-3-(2-oxooxazolidin-3-yl)benzamide Hydrochloride]
Target modulation CD14 mRNA expression (fold increase versus vehicle) ([1]; hydrochloride): 15.1 fold increase versus vehicle
IC50 (MAO-A)/ IC50 (LSD1) ([2]; hydrochloride): 5.93
IC50 [3]: ≤ 5 µM
Colony formation % of Inhibition ([4]; Hydrochloride, 0.5 µM): 36.3%
Colony formation Target Modulation CD14 mRNA expression (Fold increase) ([5]; hydrochloride): 27.7 Fold increase

SMILES: N[C@H]1C[C@@H]1c1ccc(NC(=O)c2cccc(N3CCOC3=O)c2)cc1 [Example 13, N-[4-[(1R,2S)-2-aminocyclopropyl]phenyl]-3-(2-oxooxazolidin-3-yl)benzamide Hydrochloride]
Target modulation CD14 mRNA expression (fold increase versus vehicle) [1]: 3.1 fold increase versus vehicle
IC50 (MAO-A)/ IC50 (LSD1) [2]: 2.67
IC50 ([3]; Homo sapiens): ≤ 5 µM
inhibition at 0.5 µM [4]: 19%
Colony formation Target Modulation CD14 mRNA expression (Fold increase) [5]: 6 Fold increase
